Laboratory results taken from patent US20250296937A1, “CYCLIC BISBENZYL TETRAHYDROISOQUINOLINE COMPOUND, AND PREPARATION METHOD THEREFOR AND USE THEREOF” (Shanghai Institute of Materia Medica, Chinesse Academy of …, priority 2021, published 2025).

Tests used:
Vero E6 cells = assay: Cytotoxicity test on Vero E6 cells (CCK8); type: cell-based; details: inventors' screening of natural products
Procedure: In this embodiment, the half toxicity concentration of each embodiment on Vero E6 cells was determined by CCK8 kit analysis (CC50).

[1] = cited from earlier work
[2] = system: 2019 novel coronavirus (SARS-CoV-2) original strain; assay: Replication inhibitory activity against SARS-CoV-2 original strain in Vero E6 cells (qRT-PCR); type: cell-based

## COc1cc2c3cc1Oc1c(OC)c(OC)cc4c1[C@H](Cc1ccc(cc1)Oc1cc(ccc1O)C[C@H]3N(C)CC2)N(C)CC4 [Oxyacanthine, oxyacanthine, reference compound]
Vero E6 cells
  cytotoxicity (background statement): high cytotoxicity
[1]; ethanol, chloroform, ether, dilute acid
  solubility in ethanol, chloroform, ether, dilute acid: soluble
[1]; water
  solubility in water: almost insoluble
[2]
  antiviral activity against novel coronaviruses (background statement): weak antiviral activity
